Results from patent US10159726B2, “Peptides, combination of peptides and scaffolds for use in immunotherapeutic treatment of various cancers” (Immatics Biotechnologies GmbH, priority 2015, dated 2018).

Columns and labels:
[1] = system: CD8+ T cells of healthy HLA-A*02+ donors; assay: In vitro T-cell priming (immunogenicity) with aAPCs loaded with HLA-A*02 peptide/MHC and anti-CD28, multimer readout; format: cell-based, human; settings: for in vitro immunogenicity, Wells positive [%]: HLA-A*02 peptides, in vitro priming, multimer readout; for peptide-specific in vitro CD8+ T cell response, 2D multimer staining: healthy HLA-A*02+ donor, three cycles of stimulation, FIG. 4, frequencies only in the figure
Source text: In order to obtain information regarding the immunogenicity of the TUMAPs of the present invention, the inventors performed investigations using an in vitro T-cell priming assay based on repeated stimulations of CD8+ T cells with artificial antigen presenting cells (aAPCs) loaded with peptide/MHC complexes and anti-CD28 antibody.
In order to perform in vitro stimulations by artificial antigen presenting cells loaded with peptide-MHC complex (pMHC) and anti-CD28 antibody, the inventors first isolated CD8+ T cells from fresh HLA-A*02 leukapheresis products via positive selection using CD8 microbeads (Miltenyi Biotec, Bergisch-Gladbach, Germany) of healthy donors obtained from the University clinics Mannheim, Germany, after informed consent.
PBMCs and isolated CD8+ lymphocytes were incubated in T-cell medium (TCM) until use consisting of RPMI-Glutamax (Invitrogen, Karlsruhe, Germany) supplemented with 10% heat inactivated human AB serum (PAN-Biotech, Aidenbach, Germany), 100 U/ml Penicillin/100 μg/ml Streptomycin (Cambrex, Cologne, Germany), 1 mM sodium pyruvate (CC Pro, Oberdorla, Germany), 20 μg/ml Gentamycin (Cambrex). 2.5 ng/ml IL-7 (PromoCell, Heidelberg, Germany) and 10 U/ml IL-2 (Novartis Pharma, Nürnberg, Germany) were also added to the TCM at this step.
Generation of pMHC/anti-CD28 coated beads, T-cell stimulations and readout was performed in a highly defined in vitro system using four different pMHC molecules per stimulation condition and 8 different pMHC molecules per readout condition.
The purified co-stimulatory mouse IgG2a anti human CD28 Ab 9.3 (Jung et al., 1987) was chemically biotinylated using Sulfo-N-hydroxysuccinimidobiotin as recommended by the manufacturer (Perbio, Bonn, Germany). Beads used were 5.6 μm diameter streptavidin coated polystyrene particles (Bangs Laboratories, Illinois, USA).
pMHC used for positive and negative control stimulations were A*0201/MLA-001 (peptide […] (SEQ ID NO. 418) from modified Melan-A/MART-1) and A*0201/DDX5-001 ([…] from DDX5, SEQ ID NO. 419), respectively.
800.000 beads/200 μl were coated in 96-well plates in the presence of 4×12.5 ng different biotin-pMHC, washed and 600 ng biotin anti-CD28 were added subsequently in a volume of 200 μl. Stimulations were initiated in 96-well plates by co-incubating […] CD8+ T cells with 2×10^5 washed coated beads in 200 μl TCM supplemented with 5 ng/ml IL-12 (PromoCell) for 3 days at 37° C. Half of the medium was then exchanged by fresh TCM supplemented with 80 U/ml IL-2 and incubating was continued for 4 days at 37° C. This stimulation cycle was performed for a total of three times. For the pMHC multimer readout using 8 different pMHC molecules per condition, a two-dimensional combinatorial coding approach was used as previously described (Andersen et al., 2012) with minor modifications encompassing coupling to 5 different fluorochromes. Finally, multimeric analyses were performed by staining the cells with Live/dead near IR dye (Invitrogen, Karlsruhe, Germany), CD8-FITC antibody clone SK1 (BD, Heidelberg, Germany) and fluorescent pMHC multimers. For analysis, a BD LSRII SORP cytometer equipped with appropriate lasers and filters was used. Peptide specific cells were calculated as percentage of total CD8+ cells. Evaluation of multimeric analysis was done using the FlowJo software (Tree Star, Oregon, USA). In vitro priming of specific multimer+ CD8+ lymphocytes was detected by comparing to negative control stimulations.
Exemplary flow cytometry results after TUMAP-specific multimer staining for 2 peptides of the invention are shown in FIG. 3 together with corresponding negative controls. Exemplary flow cytometry results after TUMAP-specific multimer staining for 7 peptides of the invention are shown in FIGS. 4 and 5 together with corresponding negative controls.

HLA-A*02 = HLA-A*02 (Homo sapiens, UniProt P04439, D140Y/D185E/D98H/E176V/E277Q/G131W/G231S/I119V/I121R/I166T/I218V/N151K/N90K/P208A/P217A/Q86G/Q94H/R138H/R169H); assay: MHC binding assay, UV-ligand exchange with beta2m ELISA, HLA-A*02; settings: peptide exchange yield
Source text: Candidate peptides for T cell based therapies according to the present invention were further tested for their MHC binding capacity (affinity). The individual peptide-MHC complexes were produced by UV-ligand exchange, where a UV-sensitive peptide is cleaved upon UV-irradiation, and exchanged with the peptide of interest as analyzed. Only peptide candidates that can effectively bind and stabilize the peptide-receptive MHC molecules prevent dissociation of the MHC complexes. To determine the yield of the exchange reaction, an ELISA was performed based on the detection of the light chain (β2m) of stabilized MHC complexes. The assay was performed as generally described in Rodenko et al. (Rodenko et al., 2006).
96 well MAXISorp plates (NUNC) were coated over night with 2 ug/ml streptavidin in PBS at room temperature, washed 4× and blocked for 1 h at 37° C. in 2% BSA containing blocking buffer. […] Peptide-MHC monomers of the UV-exchange reaction were diluted 100 fold in blocking buffer. Samples were incubated for 1 h at 37° C., washed four times, incubated with 2 ug/ml HRP conjugated anti-β2m for 1 h at 37° C., washed again and detected with TMB solution that is stopped with […]. Absorption was measured at 450 nm. Candidate peptides that show a high exchange yield (preferably higher than 50%, most preferred higher than 75%) are generally preferred for a generation and production of antibodies or fragments thereof, and/or T cell receptors or fragments thereof, as they show sufficient avidity to the MHC molecules and prevent dissociation of the MHC complexes.

Substance	MHC class I binding score, Peptide exchange (HLA-A*02)	in vitro immunogenicity, Wells positive [%] [1]	peptide-specific in vitro CD8+ T cell response, 2D multimer staining [1]
2 (ALYGKLLKL; listed as Homo sapiens) [compound 2]	+++ (50%-75% = +++)	++++ (>=70% = ++++)	
7 (AAAAKVPEV; listed as Homo sapiens) [compound 7]	+++ (50%-75% = +++)	+ (<20% = +)	
ALYGKLLKL (listed as Homo sapiens) [SEQ ID NO: 2]			peptide-specific in vitro CD8+ T cell responses
FLGDYVENL (listed as Homo sapiens) [SEQ ID NO: 9]			peptide-specific in vitro CD8+ T cell responses

More lines, main results first:

MHC class I binding score, Peptide exchange (HLA-A*02)	Substance	in vitro immunogenicity, Wells positive [%] [1]	peptide-specific in vitro CD8+ T cell response, 2D multimer staining [1]
++ (20%-49% = ++)	9 (FLGDYVENL; listed as Homo sapiens) [compound 9]	+ (<20% = +)	
+++ (50%-75% = +++)	17 (ILHEHHIFL; listed as Homo sapiens) [compound 17]	+ (<20% = +)	
+++ (50%-75% = +++)	43 (LLWAGPVTA; listed as Homo sapiens) [compound 43]	++++ (>=70% = ++++)	
+++ (50%-75% = +++)	322 (ALVSGGVAQA; listed as Homo sapiens) [compound 322]	+ (<20% = +)	
